# In publication PMC5730604:
# Like-named read-outs stand apart in the source and are kept apart here. Positions of bridges follow the written chain, without caps; N, C: chain ends. Non-standard residues stand in square brackets, D forms with d. Residues, ends and D or L forms follow the SMILES beside them. Chains are numbered I, II in the order given. *: point of attachment. PEG28 = NCCOCCOCCOCCOCCOCCOCCOCCOCCOCCOCCOCCOCCOCCOCCOCCOCCOCCOCCOCCOCCOCCOCCOCCOCCOCCOCCOCCOCCC(=O)O; Tyr(3-NO2) = N[C@@H](Cc1ccc(O)c([N+](=O)[O-])c1)C(=O)O; Biotin = O=C1N[C@H]2[C@H](CS[C@H]2CCCCC(=O)*)N1; Hyp = O=C(O)[C@@H]1C[C@@H](O)CN1; For = O=C*
# Columns and labels:
# integrin α3 = target: T1, integrin α3 (Homo sapiens, UniProt P26006); test: Displacement of anti-CD49c-PE conjugate (flow cytometry); format: binding; details: increasing peptide concentrations, 2 mM MnCl2, 30 min on ice, flow cytometry (PE channel)
# T1 construct: endogenous in cells
# A431 = test: Flow cytometry binding to cells; parameters: species or system Human; key to the marks not given beside the values; details: 1 µM biotinylated peptide
# PC-3 = test: Flow cytometry binding to cells; parameters: species or system Human; key to the marks not given beside the values; details: 1 µM biotinylated peptide
# K562 = test: Flow cytometry binding to cells; parameters: species or system Human; details: 1 µM biotinylated peptide; note: key: ++: Strong binding; +: medium binding; +/−: weak binding; −: no binding
# HUVEC = test: Flow cytometry binding to cells; parameters: species or system Human; details: 1 µM biotinylated peptide
# primary lymphocytes = test: Flow cytometry binding to cells; details: 1 µM biotinylated peptide; note: key: ++: Strong binding; +: medium binding; +/−: weak binding; −: no binding
# primary monocytes = test: Flow cytometry binding to cells; details: 1 µM biotinylated peptide; note: key: ++: Strong binding; +: medium binding; +/−: weak binding; −: no binding
# primary granulocytes = test: Flow cytometry binding to cells; details: 1 µM biotinylated peptide; note: key: ++: Strong binding; +: medium binding; +/−: weak binding; −: no binding
# [1] = system: primary macrophages 7 days; test: Flow cytometry binding to cells; details: 1 µM biotinylated peptide; for binding to macrophages 7 days: key: ++: strong binding; +: m edium binding; +/-: weak or heterogeneous binding; -: no binding
# primary leukocytes = test: Flow cytometry binding to cells; details: 1 µM biotinylated peptide; note: key: ++: Strong binding; +: medium binding; +/−: weak binding; −: no binding
# primary macrophages 7d = test: Flow cytometry binding to cells; details: 1 µM biotinylated peptide; note: key: ++: Strong binding; +: medium binding; +/−: weak binding; −: no binding
# GPC-16 = test: Flow cytometry binding to cells; parameters: key to the marks not given beside the values; details: 1 µM biotinylated peptide
# U-87MG = test: Flow cytometry binding to cells; parameters: key: ++: strong binding; +: m edium binding; +/-: weak or heterogeneous binding; -: no binding; details: Table S1, human, 1 µM biotinylated peptide, 2 mM MnCl2, on ice
# MDA-MB-231 = test: Flow cytometry binding to cells; parameters: key: ++: strong binding; +: m edium binding; +/-: weak or heterogeneous binding; -: no binding; details: Table S1, human, 1 µM biotinylated peptide, 2 mM MnCl2, on ice
# HT-29 = test: Flow cytometry binding to cells; parameters: key: ++: strong binding; +: m edium binding; +/-: weak or heterogeneous binding; -: no binding; details: Table S1, human, 1 µM biotinylated peptide, 2 mM MnCl2, on ice
# H MC-1 = test: Flow cytometry binding to cells; details: Table S1, human, 1 µM biotinylated peptide, 2 mM MnCl2, on ice; note: key: ++: Strong binding; +: medium binding; +/−: weak binding; −: no binding
# NIH-3T3 = details: mouse, flow cytometry, 1 µM biotinylated peptide
# Method: (§26) from DSMZ or LGC and cultured according to the distributors’ guidelines. Human, murine or
# (§27) guinea pig leukocytes or macrophages were isolated and cultured as described below. Cells
# (§28) growing in monolayers were detached using trypsin/EDTA and then re- suspended in complete
# (§29) culture medium. After washing with washing buffer (W B: 0.9% NaCl, 10 mM Hepes, pH 7.3) at
# (§30) 4°C, cells were re-suspended at 2x10^6 cells/ml in peptide blocking b uf f er ( PBB: 0.9% NaCl,
# (§31) 10 m M H epes, pH 7.3, 5 m M KCl , 3% BSA, 5% FCS) and incubated for 10 minutes on ice
# (§32) concentration in PBB were added to equal volumes of aliquots of 1x10^5 cells, and were
# (§33) incubated f or 30 min on ice with repeated shaking to keep the cells in suspension. Except
# (§34) three times wit h 1 ml W B, followed by incubation with streptavidin labeled wit h PerCP-Cy5.5
# (§35) (BD Biosciences, 200 µg/ml; diluted 1:400 in PBB) for 15 min on ice. After one additional
# (§36) wa s h ing step with phosphate- buffered saline (PBS) at 4°C, samples were re-suspended in
# (§37) PBS with Hoechst 33258 solution (0.5 µg/ml) and analyzed using a F ACS Canto system ( at
# least 1x10^4 cells per sample were counted). Evaluations were performed using FloJo software.
# W hole cells were gated i n a FSC/SSC plot and live gating was based on Hoechst exclusion.
# After gating out debris, aggregates and dead cells, overlay histograms in the PerCP-Cy5.5
# indicated cases the geometrical mean f luorescence was recorded.
# For determining binding affinity, a rang e of concentrations of the biotinylated compound was
# tested and the f luorescent signals were plotted against concentration. The concentration at
# which half-maximum binding intensity was reached (KD) was calculated using Origin 9.0
# sof tware and a “one site specif ic binding” fit (y =(Bmax* x) /(KD+x) ).
# f luorescent signals were plotted against competitor concentration. The concentration at which
# HeLa = system: HeLa; parameters: key to the marks not given beside the values; details: Table S1; human; flow cytometry, 1 µM biotinylated peptide, 2 mM MnCl2, on ice
# L-929 = details: Table S1; mouse; flow cytometry, 1 µM biotinylated peptide, 2 mM MnCl2, on ice
# Method: as §26, §27, §28, §29, §30, §31, §32, §33, §34, §35, §36, §37
# (§38) least 1x10^4 cells per sample were counted). Evaluations were performed using FloJo software. […]
# (§39) indicated cases the geometrical mean f luorescence was recorded. […]
# (§40) which half-maximum binding intensity was reached (KD) was calculated using Origin 9.0 […]
# E0771 = details: Table S1; mouse; flow cytometry, 1 µM biotinylated peptide, 2 mM MnCl2, on ice
# Method: as §26, §27, §28, §29, §30, §31, §32, §33, §34, §35, §36, §37, §38, §39, §40
# 4T1 = details: Table S1; mouse; flow cytometry, 1 µM biotinylated peptide, 2 mM MnCl2, on ice
# Method: as §26, §27, §28, §29, §30, §31, §32, §33, §34, §35, §36, §37, §38, §39, §40
# PC-3 or A431 cells = details: 37 °C, streptavidin staining, flow cytometry
# Method: washed as described above and then re-suspended in Eagle’s minimum essential medium
# incubated on ice or at 37°C. At different time points after washing 50 µl samples were taken
# and added to 50 µl of Streptavidin- PerCP-Cy5.5 (diluted 1:200), incubated on ice f or 15 min,
# washed with PBS, and analyzed in PBS with Hoechst solution. Fluorescent signals were
# plotted against time between washing and streptavidin addition.
# over time after incubation on ice and at 37°C.
# labeled streptavidin as described previously f or flow cytometry assays.
# human leukocytes = test: Chemotaxis assay; format: cell-based; details: compared with the non-PEGylated effector
# Method: (§1) Human leukocytes were re-suspended in Hank ’s Buffered Saline Solution (HBSS, without
# (§2) Ca2+, Mg 2+) with 10 mM Hepes pH 7.3 and 0.3% BSA at 10^7 cells/ml. Cells were pre-warmed
# (§3) at 37°C for 20 min. After adding the effector dilutions in the lower compartment of 24-well plates
# (§4) (800 µl/well), a Millicell culture plate insert with 5 µm pore size was placed in each well, f ollowed
# (§5) by immediate addition of 200 µl (2 million) leuk ocytes. In one well, the cells were added without
# (§6) a f ilter insert, allowing determination of the input number. The plate was incubated at 37°C and
# (§7) 5% CO2 f or 45 min. 5 mM EDTA solution was added and the plate was incubated f or another
# (§8) 10 min at 37 °C. […]
# Phorbol
# (§9) 12- m yr ist oyl 13-acetate (P MA , 3 µg/ml) was used as a positive control. All samples were f ixed
# (§10) in 1% formaldehyde Hoechst 33258 solution (0.5 µg/ml) was added and cells were k ept on ice
# (§11) until analysis using a FACS Canto system. After gating for live cells and granulocytes (human
# (§12) cells) or non- lymphocytes (murine cells) in the FSC/SSC plot, rhodamine-positive cells were
# (§13) identif ied in a PE/SSC plot, using an unstimulated sample as a reference.
# (§14) Human monocytes, after an overnight pre- culture, were incubated f or 6 more hours in 1 ml
# (§15) RPMI+10% FCS containing 100 nM F2- 2PEG, 0.1 ng/ml LPS (Sigma- Aldrich), or no stimulus.
# (§16) All experiments were performed in duplicates. […]
# human granulocytes = test: Oxidative burst (dihydro-rhodamine oxidation) assay; format: cell-based; details: compared with the non-PEGylated effector
# Method: Activation of the oxidative burst (phagocyte NADPH oxidase) was measured using a
# dihydrorhodamine (DHR, Molecular Probes) oxidation assay, based on a method described
# previously1. In brief, 200 µl samples of human, murine or guinea pig leukocytes (1.25x 106
# cells/ml in HHBS + 10 mM Hepes, pH 7.3, 0.3% BSA and 5 mM EDTA) were loaded with DHR
# and catalase (Sigma-Aldrich) and cytochalasin B (Sigma-Aldrich) were added. Cells were pre-
# incubated at 37°C for 10 min followed by the addition of 50 µl of effector dilutions (5x the
# intended concentration) in the same buffer and another 15 min of incubation at 37°C. Phorbol
# as §9, §10, §11, §12, §13, §14, §15, §16
# mice = test: Immune activation assays (Figure S2C,D); format: cell-based, Mouse; details: compared with human cells
# Method: as §1, §2, §3, §4, §5, §6, §7, §8
# (§17) determined using a Neubauer chamber, or the numbers of transmigrated monocytes ,
# (§18) granulocytes and lymphocytes were determined by flow cytometry (discriminating c e ll […]
# (§19) 37°C and 5% CO2. Macrophages on the bottom side of the f ilter were counted. […]
# (§20) J software, means and standard deviations were calculated and presented as absolute […]
# (§21) Activation of the oxidative burst (phagocyte NADPH oxidase) was measured using a […]
# (§22) 150 µl were stored at - 80 °C until cytokine levels were measured with commercially available
# (§23) ELISA kits (Ready-set-go system, eBiosciences). […]
# (§24) were measured and calculated based on the standards included wit hin the ELISA kits and as […]
# (§25) analysis. Measured cytok ine levels were normalized to 1 (the average of the two unstimulated
# guinea pigs = test: Immune activation assays (Figure S2C,D); format: cell-based, Guinea pig; details: compared with human cells
# Method: as §1, §2, §3, §4, §5, §6, §7, §8, §17, §18, §19, §20, §21, §22, §23, §24, §25
# [2] = 2 mM MnCl2, 30 min on ice, streptavidin-PerCP-Cy5.5
# [3] = Table S1, human, 2 mM MnCl2, on ice
# [4] = human, 2 mM MnCl2, 30 min on ice, streptavidin-PerCP-Cy5.5
# [5] = Table S1, mouse, 2 mM MnCl2, on ice
# [6] = mouse, 2 mM MnCl2, 30 min on ice, streptavidin-PerCP-Cy5.5
# T1 sequence (P26006 33-872 limits assumed): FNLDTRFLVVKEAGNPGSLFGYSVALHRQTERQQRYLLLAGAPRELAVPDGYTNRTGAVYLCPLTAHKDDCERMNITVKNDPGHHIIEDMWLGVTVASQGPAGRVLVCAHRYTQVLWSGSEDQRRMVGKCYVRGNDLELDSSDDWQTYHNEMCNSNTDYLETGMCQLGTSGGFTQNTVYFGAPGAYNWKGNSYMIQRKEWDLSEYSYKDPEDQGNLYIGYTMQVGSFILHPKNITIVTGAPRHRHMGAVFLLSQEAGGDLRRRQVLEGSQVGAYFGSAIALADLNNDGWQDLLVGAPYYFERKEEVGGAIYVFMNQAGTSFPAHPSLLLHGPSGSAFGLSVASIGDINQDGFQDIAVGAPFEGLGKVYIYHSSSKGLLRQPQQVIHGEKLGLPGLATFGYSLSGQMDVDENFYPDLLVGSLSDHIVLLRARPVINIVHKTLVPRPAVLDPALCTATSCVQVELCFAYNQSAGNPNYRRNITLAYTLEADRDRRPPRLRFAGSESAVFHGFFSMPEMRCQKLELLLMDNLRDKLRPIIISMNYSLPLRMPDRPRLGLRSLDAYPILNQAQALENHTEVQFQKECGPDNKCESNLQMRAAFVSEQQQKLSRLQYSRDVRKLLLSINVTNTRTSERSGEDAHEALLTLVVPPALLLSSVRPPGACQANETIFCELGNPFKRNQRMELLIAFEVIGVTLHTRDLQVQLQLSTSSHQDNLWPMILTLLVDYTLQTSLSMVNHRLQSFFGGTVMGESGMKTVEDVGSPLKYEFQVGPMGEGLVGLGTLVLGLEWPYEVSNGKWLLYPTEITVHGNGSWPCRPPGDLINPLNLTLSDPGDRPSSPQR
# T1 sequence (P26006 876-1051 partner limits assumed): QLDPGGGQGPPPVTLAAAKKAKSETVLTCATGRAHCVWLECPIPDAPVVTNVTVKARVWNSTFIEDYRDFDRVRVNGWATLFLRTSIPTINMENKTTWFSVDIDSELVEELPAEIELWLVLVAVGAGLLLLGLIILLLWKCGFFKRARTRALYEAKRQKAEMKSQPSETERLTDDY
# T1 sequence (P05556 21-798 partner): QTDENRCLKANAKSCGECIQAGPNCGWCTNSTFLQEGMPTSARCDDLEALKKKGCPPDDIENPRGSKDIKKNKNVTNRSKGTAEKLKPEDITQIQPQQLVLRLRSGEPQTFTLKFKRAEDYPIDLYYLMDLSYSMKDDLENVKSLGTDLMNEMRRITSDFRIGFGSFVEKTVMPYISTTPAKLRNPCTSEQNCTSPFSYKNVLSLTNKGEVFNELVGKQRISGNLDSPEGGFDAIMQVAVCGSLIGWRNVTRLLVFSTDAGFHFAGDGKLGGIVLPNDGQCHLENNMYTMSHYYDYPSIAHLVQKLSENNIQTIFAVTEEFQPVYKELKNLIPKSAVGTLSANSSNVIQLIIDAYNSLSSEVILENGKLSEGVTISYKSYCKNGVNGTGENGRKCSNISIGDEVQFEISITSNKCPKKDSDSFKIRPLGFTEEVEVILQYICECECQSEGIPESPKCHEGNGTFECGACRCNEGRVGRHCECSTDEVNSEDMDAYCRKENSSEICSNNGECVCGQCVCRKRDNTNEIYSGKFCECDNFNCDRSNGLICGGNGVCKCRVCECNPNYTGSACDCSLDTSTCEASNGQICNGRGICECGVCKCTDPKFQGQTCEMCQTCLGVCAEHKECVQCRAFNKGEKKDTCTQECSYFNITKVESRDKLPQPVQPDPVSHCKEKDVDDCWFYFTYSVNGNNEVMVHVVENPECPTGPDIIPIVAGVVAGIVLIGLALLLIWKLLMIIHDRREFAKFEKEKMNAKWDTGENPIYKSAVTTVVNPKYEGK
compound,measurement,setting,value
NC(=O)C[C@@H]1NC(=O)[C@@H]2C[C@@H](O)CN2C(=O)CNC(=O)[C@H](Cc2ccc(O)c([N+](=O)[O-])c2)NC(=O)CNC(=O)[C@@H](CC(=O)O)NC(=O)[C@H](N)CSSC[C@H](C(=O)O)NC1=O [B9] (H-[dC][dD]G[Tyr(3-NO2)]G[Hyp]N[dC]-OH; disulfide 1-8),displacement of anti-CD49c-PE conjugate,integrin α3,competes
"CC[C@H](C)[C@H](NC(=O)[C@H](CCSC)NC(=O)CCCC[C@@H]1SC[C@@H]2NC(=O)N[C@@H]21)C(=O)N[C@@H](Cc1ccccc1)C(=O)N[C@@H](CC(C)C)C(=O)NCC(=O)NCC(=O)N[C@@H](CCCCNC(=O)CCOCCOCCOCCOCCOCCOCCOCCOCCOCCOCCOCCOCCOCCOCCOCCOCCOCCOCCOCCOCCOCCOCCOCCOCCOCCOCCOCCOCCNC(=O)[C@H]1CSSC[C@@H](N)C(=O)N[C@H](CC(=O)O)C(=O)NCC(=O)N[C@@H](Cc2ccc(O)c([N+](=O)[O-])c2)C(=O)NCC(=O)N2C[C@H](O)C[C@H]2C(=O)N[C@@H](CC(N)=O)C(=O)N1)C(=O)N[C@@H](CCCCNC(=O)CCOCCOCCOCCOCCOCCOCCOCCOCCOCCOCCOCCOCCOCCOCCOCCOCCOCCOCCOCCOCCOCCOCCOCCOCCOCCOCCOCCOCCNC(=O)[C@H]1CSSC[C@@H](N)C(=O)N[C@H](CC(=O)O)C(=O)NCC(=O)N[C@@H](Cc2ccc(O)c([N+](=O)[O-])c2)C(=O)NCC(=O)N2C[C@H](O)C[C@H]2C(=O)N[C@@H](CC(N)=O)C(=O)N1)C(=O)O [Biotin-Y9] (I: H-[dC][dD]G[Tyr(3-NO2)]G[Hyp]N[dC][PEG28] / II: H-[dC][dD]G[Tyr(3-NO2)]G[Hyp]N[dC][PEG28] / III: Biotin-MIFLGGKK-OH; disulfide I:1-I:8, II:1-II:8; amide I:C-III:7, II:C-III:8)",binding to A431,A431; [2],++
same,binding to A431,A431; [3],++
same,binding to PC-3,PC-3; [2],++
same,binding to PC-3,PC-3; [3],++
same,binding to K562,K562; [2],−
same,binding to K562,K562; [3],-
same,binding to HUVEC,HUVEC; [2],++
same,binding to HUVEC,HUVEC; [3],++
same,binding to fresh lymphocytes,primary lymphocytes; [3],-
same,binding to primary lymphocytes,primary lymphocytes; [4],−
same,binding to fresh monocytes,primary monocytes; [3],-
same,binding to primary monocytes,primary monocytes; [4],−
same,binding to fresh granulocytes,primary granulocytes; [3],-
same,binding to primary granulocytes,primary granulocytes; [4],−
same,binding to macrophages 7 days,[1]; [3],+/-
same,binding to primary macrophages 7 days,[1]; [4],+/−
same,binding to leukocytes,primary leukocytes; [5],-
same,binding to primary leukocytes,primary leukocytes; [6],−
same,binding to macrophages 7d,primary macrophages 7d; [5],-
same,binding to primary macrophages 7d,primary macrophages 7d; [6],−
same,binding to GPC-16,"GPC-16; Table S1, guinea pig, 2 mM MnCl2, on ice",++
same,binding to GPC-16,"GPC-16; guinea pig, 2 mM MnCl2, 30 min on ice, streptavidin-PerCP-Cy5.5",++
same,binding to U-87MG,U-87MG,++
same,binding to MDA-MB-231,MDA-MB-231,++
same,binding to HT-29,HT-29,++
same,binding to H MC-1,H MC-1,-
same,binding to NIH-3T3,"NIH-3T3; Table S1, 2 mM MnCl2, on ice",+
same,binding to NIH-3T3,NIH-3T3; [2],+
same,binding to HeLa,HeLa,++
same,binding to L-929,L-929,-
same,binding to E0771,E0771,+
same,binding to 4T1,4T1,++
same,t1/2 on cell membranes,PC-3 or A431 cells,at least 15 minutes
CSCC[C@H](NC=O)C(=O)N[C@@H](CC(C)C)C(=O)N[C@@H](Cc1ccccc1)C(=O)NCC(=O)NCC(=O)N[C@@H](CCCCNC(=O)CCOCCOCCOCCOCCOCCOCCOCCOCCOCCOCCOCCOCCOCCOCCOCCOCCOCCOCCOCCOCCOCCOCCOCCOCCOCCOCCOCCOCCN)C(=O)N[C@@H](CCCCNC(=O)CCOCCOCCOCCOCCOCCOCCOCCOCCOCCOCCOCCOCCOCCOCCOCCOCCOCCOCCOCCOCCOCCOCCOCCOCCOCCOCCOCCOCCN)C(=O)O [F1-2PEG] (For-MLFGGK(PEG28)K(PEG28)-OH),loss of potency to induce chemotaxis when linked to the PEG chains,human leukocytes,two
same,loss of potency for neutrophil activation (superoxide production) when linked to the PEG chains,human granulocytes,two
same,immune activation in mice,mice,less potent immune activators
same,immune activation in guinea pigs,guinea pigs,less potent immune activators
